Measurements as given in US9073884B2, “Anti-inflammatory and quorum sensing inhibition compounds and methods of making and using them” (The Regents of the University of California, priority 2010, dated 2015).

What was measured:
[1] = test system: Escherichia coli JB525 (E. coli MT102 harboring the gfp plasmid pJBA132); test: Escherichia coli JB525 assay (quorum sensing inhibition); type: cell-based
vibrio harveyi = vibrio harveyi assay (quorum sensing inhibition); type: cell-based

## O=C(/C=C/CCl)O[C@@H]1COC(=O)C1 [Honaucin A]
[1]
  inhibition of AI-1 and AI-2 mediated quorum sensing: good inhibition
Vibrio harveyi
  inhibition of AI-1 and AI-2 mediated quorum sensing: good inhibition
